In publication PMC5623949, “Exploiting the 2-Amino-1,3,4-thiadiazole Scaffold To Inhibit Trypanosoma brucei Pteridine Reductase in Support of Early-Stage Drug Discovery” (ACS Omega, 2017):
Read-outs that look alike come from different tables or passages of the source.

How the values were obtained:
[1] = tested on: T. b. brucei Lister 427 bloodstream forms; experiment: In vitro activity against T. brucei (HTS SYBR Green I growth inhibition assay); format: cell-based, Trypanosoma brucei brucei; details: Trypanosoma brucei, standard deviation within ±10% of the value; for inhibition at 50 µM: read-out: % Inhibition T. brucei at 50 μM; for EC50: read-out: EC50 T. brucei
[2] = in vitro; parameters: cytotoxicity, per cent cell growth of A549 cells; details: human, a549 cells; read-out: % cell growth A549 at 10uM
Procedure: (§1) Independent of the effect of any antiparasitic potential of compounds, they were evaluated using a panel of early-toxicity assays comprising cytotoxicity (A549, human lung adenocarcinoma epithelial cell line and WI-38, human lung fibroblasts), mitochondrial toxicity (786-O, human renal carcinoma cell line), hERG inhibition,[31] cytochrome P450 inhibition (CYP1A2, CYP2C9, CYP2C19, CYP2D6, and CYP3A4),[31] and Aurora B kinase inhibition. […] For the two compounds active against TbPTR1 (4m and 4o), IC50 against hERG, cytochrome P450, and mitochondrial toxicity were determined (reported in Supporting Information). We observed that the dose of compounds 4m, 4o, 4c, and 3k was 4 μM in the potentiation assays. […] In the case of hERG, CYP2D6, CYP2A9, CYP2C19, and mitochondrial toxicity, there is a selectivity index of around 3–4 fold, thus showing an acceptable profile.  Figure 10 Summary heat map of the in vitro assays to determine possible liability issues for all synthesized compounds. Assays were performed to assess inhibition of hERG and five CYP isoforms (1A2, 2C9, 2C19, 2D6, and 3A4), growth inhibition of A549 and W1-38 cell lines, and mitochondrial toxicity at 10 μM. The hDHFR inhibition was determined at 100 μM. The data, expressed as percentage values, were organized by adopting a color code for rapid and intuitive visualization. The ideal compound should have all tiles blue, indicating a safe toxicological profile for progressing into the development pipeline. The cells are colored from blue (100% of cell growth at the tested concentration) to red (0% of cell growth at the tested concentration) for A549 and W1-38 and from blue (0% of inhibitory activity at the tested concentration) to red (100% of inhibitory activity at the tested concentration) for CYP isoforms, hERG, hDHFR, and mitochondrial toxicity.

[3] = biological target: CYP2C9 (Homo sapiens, UniProt P11712); experiment: in vitro; parameters: cytochrome P450 isoform inhibition liability assay
Sequence of CYP2C9 (P11712 whole entry, canonical isoform): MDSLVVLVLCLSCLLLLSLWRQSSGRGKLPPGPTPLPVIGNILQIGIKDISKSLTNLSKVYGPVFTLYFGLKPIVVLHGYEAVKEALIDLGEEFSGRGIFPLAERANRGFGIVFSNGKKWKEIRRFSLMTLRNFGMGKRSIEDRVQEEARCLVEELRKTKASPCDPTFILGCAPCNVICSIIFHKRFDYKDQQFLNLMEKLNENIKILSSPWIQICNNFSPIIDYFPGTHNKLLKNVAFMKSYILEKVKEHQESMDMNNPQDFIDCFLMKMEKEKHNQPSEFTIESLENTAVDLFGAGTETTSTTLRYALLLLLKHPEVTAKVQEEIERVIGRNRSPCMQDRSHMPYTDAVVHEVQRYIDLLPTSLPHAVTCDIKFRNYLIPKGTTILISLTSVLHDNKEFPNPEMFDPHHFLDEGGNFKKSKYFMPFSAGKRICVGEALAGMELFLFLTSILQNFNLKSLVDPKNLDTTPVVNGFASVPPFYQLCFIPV
Procedure: as §1

[4] = biological target: T1, CYP1A2 (Homo sapiens, UniProt P05177); experiment: in vitro; parameters: cytochrome P450 isoform inhibition liability assay
T1 sequence (P05177 1-516): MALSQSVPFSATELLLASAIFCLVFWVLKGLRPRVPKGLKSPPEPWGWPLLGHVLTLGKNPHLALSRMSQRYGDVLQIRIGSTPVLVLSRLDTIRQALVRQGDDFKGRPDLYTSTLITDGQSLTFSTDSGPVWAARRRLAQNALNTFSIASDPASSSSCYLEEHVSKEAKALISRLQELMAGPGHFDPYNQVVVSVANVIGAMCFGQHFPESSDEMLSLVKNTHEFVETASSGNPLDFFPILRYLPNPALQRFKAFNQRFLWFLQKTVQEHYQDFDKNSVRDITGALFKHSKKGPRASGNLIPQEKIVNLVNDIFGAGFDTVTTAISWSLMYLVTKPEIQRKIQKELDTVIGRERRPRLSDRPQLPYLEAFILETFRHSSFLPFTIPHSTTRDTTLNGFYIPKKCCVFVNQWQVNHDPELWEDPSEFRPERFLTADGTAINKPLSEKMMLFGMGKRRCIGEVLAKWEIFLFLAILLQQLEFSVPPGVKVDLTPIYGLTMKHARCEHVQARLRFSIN
Procedure: as §1

[5] = biological target: CYP2C19 (Homo sapiens, UniProt P33261); experiment: in vitro; parameters: cytochrome P450 isoform inhibition liability assay
Sequence of CYP2C19 (P33261 whole entry, canonical isoform): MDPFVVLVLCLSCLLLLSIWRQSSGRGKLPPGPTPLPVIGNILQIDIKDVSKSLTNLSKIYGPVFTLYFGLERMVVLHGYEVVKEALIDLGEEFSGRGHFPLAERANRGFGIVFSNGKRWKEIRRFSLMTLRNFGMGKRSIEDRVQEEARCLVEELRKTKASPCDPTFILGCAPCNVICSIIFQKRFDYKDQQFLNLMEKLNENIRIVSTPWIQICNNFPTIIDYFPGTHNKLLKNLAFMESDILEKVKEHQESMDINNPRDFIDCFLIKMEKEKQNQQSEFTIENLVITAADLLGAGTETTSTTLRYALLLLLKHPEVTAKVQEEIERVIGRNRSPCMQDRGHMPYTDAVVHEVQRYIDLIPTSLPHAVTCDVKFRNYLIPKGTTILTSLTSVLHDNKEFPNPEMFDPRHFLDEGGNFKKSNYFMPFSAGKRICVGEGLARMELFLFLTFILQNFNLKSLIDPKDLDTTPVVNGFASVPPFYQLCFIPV
Procedure: as §1

[6] = biological target: CYP2D6 (Homo sapiens, UniProt P10635); experiment: in vitro; parameters: cytochrome P450 isoform inhibition liability assay
Sequence of CYP2D6 (P10635 whole entry, canonical isoform): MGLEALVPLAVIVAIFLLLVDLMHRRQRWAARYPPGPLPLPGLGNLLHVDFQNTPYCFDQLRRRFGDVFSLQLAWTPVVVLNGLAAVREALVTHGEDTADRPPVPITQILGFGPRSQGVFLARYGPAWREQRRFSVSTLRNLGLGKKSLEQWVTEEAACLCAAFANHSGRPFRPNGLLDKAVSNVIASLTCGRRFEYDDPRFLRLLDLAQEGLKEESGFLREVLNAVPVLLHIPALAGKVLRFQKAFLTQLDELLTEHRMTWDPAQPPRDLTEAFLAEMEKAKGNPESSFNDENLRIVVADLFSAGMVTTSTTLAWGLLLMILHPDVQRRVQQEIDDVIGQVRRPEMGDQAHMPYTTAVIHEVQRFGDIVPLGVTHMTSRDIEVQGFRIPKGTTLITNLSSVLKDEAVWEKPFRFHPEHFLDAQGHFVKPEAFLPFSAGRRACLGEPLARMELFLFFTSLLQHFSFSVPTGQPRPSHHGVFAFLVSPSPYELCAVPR
Procedure: as §1

[7] = biological target: CYP3A4 (Homo sapiens, UniProt P08684); experiment: in vitro; parameters: cytochrome P450 isoform inhibition liability assay
Sequence of CYP3A4 (P08684 whole entry, canonical isoform): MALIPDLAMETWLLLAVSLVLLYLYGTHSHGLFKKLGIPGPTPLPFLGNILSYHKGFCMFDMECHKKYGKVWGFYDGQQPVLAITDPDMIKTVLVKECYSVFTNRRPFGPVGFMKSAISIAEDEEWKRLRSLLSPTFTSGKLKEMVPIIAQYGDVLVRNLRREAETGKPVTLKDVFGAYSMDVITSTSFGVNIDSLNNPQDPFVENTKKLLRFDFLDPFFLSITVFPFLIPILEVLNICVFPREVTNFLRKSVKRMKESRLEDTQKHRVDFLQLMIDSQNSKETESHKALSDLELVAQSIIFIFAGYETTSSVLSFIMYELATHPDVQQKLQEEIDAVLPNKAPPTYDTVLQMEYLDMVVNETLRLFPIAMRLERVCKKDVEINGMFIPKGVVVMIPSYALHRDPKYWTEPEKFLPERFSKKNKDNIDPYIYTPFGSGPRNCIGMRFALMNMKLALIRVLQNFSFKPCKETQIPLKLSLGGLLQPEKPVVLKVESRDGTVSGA
Procedure: as §1

[8] = biological target: T2, hERG (Homo sapiens, UniProt Q12809); parameters: hERG inhibition liability assay
T2 construct: gene KCNH2
T2 sequence (Q12809 whole entry): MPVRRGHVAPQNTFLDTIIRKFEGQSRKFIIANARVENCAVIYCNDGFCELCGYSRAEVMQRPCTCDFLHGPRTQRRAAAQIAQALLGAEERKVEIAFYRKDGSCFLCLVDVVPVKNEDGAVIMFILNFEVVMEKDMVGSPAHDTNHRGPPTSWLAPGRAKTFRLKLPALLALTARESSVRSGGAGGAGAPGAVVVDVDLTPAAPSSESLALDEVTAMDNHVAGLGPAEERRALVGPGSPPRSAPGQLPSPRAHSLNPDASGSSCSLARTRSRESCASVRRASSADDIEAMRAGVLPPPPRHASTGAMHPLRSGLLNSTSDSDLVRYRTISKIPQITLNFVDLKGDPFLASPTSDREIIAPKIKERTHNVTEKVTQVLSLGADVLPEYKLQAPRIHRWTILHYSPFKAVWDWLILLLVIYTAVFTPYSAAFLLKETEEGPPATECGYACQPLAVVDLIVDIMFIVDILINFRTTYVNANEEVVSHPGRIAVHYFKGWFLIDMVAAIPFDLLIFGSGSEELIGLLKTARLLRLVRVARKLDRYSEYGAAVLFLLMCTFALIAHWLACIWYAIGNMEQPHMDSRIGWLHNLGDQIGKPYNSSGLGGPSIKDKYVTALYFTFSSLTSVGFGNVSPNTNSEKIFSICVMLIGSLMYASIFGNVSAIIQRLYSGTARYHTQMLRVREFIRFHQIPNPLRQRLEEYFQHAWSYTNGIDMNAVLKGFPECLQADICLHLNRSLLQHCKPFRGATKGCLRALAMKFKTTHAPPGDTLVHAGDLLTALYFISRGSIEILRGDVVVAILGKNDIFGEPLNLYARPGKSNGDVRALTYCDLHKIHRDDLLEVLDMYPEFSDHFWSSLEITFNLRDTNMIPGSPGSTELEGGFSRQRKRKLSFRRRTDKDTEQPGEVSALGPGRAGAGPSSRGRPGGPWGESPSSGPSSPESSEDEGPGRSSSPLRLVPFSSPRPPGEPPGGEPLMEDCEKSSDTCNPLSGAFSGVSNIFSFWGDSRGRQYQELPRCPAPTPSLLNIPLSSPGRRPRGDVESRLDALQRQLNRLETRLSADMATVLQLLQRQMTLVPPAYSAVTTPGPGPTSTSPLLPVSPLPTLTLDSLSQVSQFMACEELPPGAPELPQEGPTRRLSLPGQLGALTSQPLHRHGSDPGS
Procedure: as §1

[9] = in vitro; parameters: cytotoxicity, per cent cell growth of WI-38 fibroblasts; details: human, wi-38 cells; read-out: % cell growth W1-38 at 10uM
Procedure: as §1

[10] = biological target: T3, TbPTR1 (Trypanosoma brucei brucei, UniProt O76290); experiment: biochemical; details: for inhibition at 50 µM: 50 μM compound, read-out: % Inhibition TbPTR1 at 50 μM; for IC50: dose-response 0.001-100 μM
T3 construct: made in house
T3 sequence (O76290 1-268): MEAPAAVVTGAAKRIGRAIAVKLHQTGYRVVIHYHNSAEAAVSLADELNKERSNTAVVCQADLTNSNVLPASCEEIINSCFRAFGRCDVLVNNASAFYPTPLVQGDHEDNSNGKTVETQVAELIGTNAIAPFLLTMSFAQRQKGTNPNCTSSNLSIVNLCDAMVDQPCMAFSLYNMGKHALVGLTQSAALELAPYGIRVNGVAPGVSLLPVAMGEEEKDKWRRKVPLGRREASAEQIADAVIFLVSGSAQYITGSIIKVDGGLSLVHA

[11] = biological target: T4, hDHFR (Homo sapiens, UniProt P00374); experiment: biochemical; parameters: human DHFR enzyme inhibition
T4 construct: gene DHFR
T4 sequence (P00374 1-187): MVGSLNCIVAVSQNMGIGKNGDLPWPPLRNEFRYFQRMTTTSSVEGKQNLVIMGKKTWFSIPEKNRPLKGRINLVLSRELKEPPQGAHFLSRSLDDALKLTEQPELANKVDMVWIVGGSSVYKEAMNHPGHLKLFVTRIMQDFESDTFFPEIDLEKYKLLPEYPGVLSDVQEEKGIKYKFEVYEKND
Procedure: Figure 10 Summary heat map of the in vitro assays to determine possible liability issues for all synthesized compounds. Assays were performed to assess inhibition of hERG and five CYP isoforms (1A2, 2C9, 2C19, 2D6, and 3A4), growth inhibition of A549 and W1-38 cell lines, and mitochondrial toxicity at 10 μM. The hDHFR inhibition was determined at 100 μM. The data, expressed as percentage values, were organized by adopting a color code for rapid and intuitive visualization. The ideal compound should have all tiles blue, indicating a safe toxicological profile for progressing into the development pipeline. The cells are colored from blue (100% of cell growth at the tested concentration) to red (0% of cell growth at the tested concentration) for A549 and W1-38 and from blue (0% of inhibitory activity at the tested concentration) to red (100% of inhibitory activity at the tested concentration) for CYP isoforms, hERG, hDHFR, and mitochondrial toxicity.

[12] = tested on: 786-O; experiment: cells; parameters: mitochondrial toxicity in 786-O renal carcinoma cells; details: Homo sapiens, 786-0; mitochondrial toxicity
Procedure: as §1

Compound	inhibition at 50 µM [1] [%]	viability at 10 µM [2] [%]	inhibition at 10 µM [3] [%]	inhibition at 10 µM [4] [%]	inhibition at 10 µM [5] [%]	inhibition at 10 µM [6] [%]	inhibition at 10 µM [7] [%]	inhibition at 10 µM [8] [%]	viability at 10 µM [9] [%]	inhibition at 50 µM [10] [%]	inhibition at 100 µM [11] [%]	inhibition at 10 µM [11] [%]	inhibition at 25 µM ([11]; 25 uM) [%]	EC50 [1] [µM]	inhibition at 10 µM [12] [%]	times less active than 4o against TbPTR1 [10]	IC50 [10] [µM]
Nc1cccc(-c2nnc(N)s2)c1 [1j]	1	134 ± 4.7	-20.2 ± 7.3	5.3 ± 5.1	-45.8 ± 11.8	-51 ± 8.9	-14.9 ± 3.9	32.6 ± 34.3	92.5 ± 7.8	27 ± 0.4	18						
Nc1nnc(-c2ccccc2Cc2ccccc2)s1 [1m, 5-(2-benzylphenyl)-1,3,4-thiadiazol-2-amine]			36.5 ± 5.4	68.1 ± 1	90.5 ± 0.6	69.2 ± 4.5	47.5 ± 4.8					20					
N#Cc1ccc(Cc2ccccc2-c2nnc(N)s2)cc1 [1n, 4-(2-(5-amino-1,3,4-thiadiazol-2-yl)benzyl)benzonitrile]			59.8 ± 4.9	56.2 ± 0.5	104 ± 2	75.4 ± 5.2	69.6 ± 3.25						37				
Nc1nnc(-c2cccc(-c3cccc(C(F)(F)F)c3)c2)s1 [2d]	94.8		46.1 ± 5.4	100 ± 2.1	43.6 ± 2.1	31.1 ± 4.3	33.9 ± 3.8			4.6 ± 1		34		37			
Nc1nnc(-c2cccc(-c3ccc(C(F)(F)F)cc3)c2)s1 [2e]	92.1		25.6 ± 4	92.6 ± 1.1	12.3 ± 5.4	20 ± 5.8	17.9 ± 5.3			6.6 ± 0.6		25		42			
COc1ccc(-c2cccc(-c3nnc(N)s3)c2)cc1OC [2f]	9.5	106 ± 4.2	53.2 ± 1.6	92.8 ± 1.9		19.2 ± 3.5	48.3 ± 2.4	15.1 ± 4.8	87.5 ± 44.4	8.6 ± 0.6	28				1.6 ± 14.4		
C[C@@H](c1cccc(C(=O)c2ccccc2)c1)c1nnc(N)s1 [3f]	88	134 ± 3.3		-14.2 ± 7.1	39.3 ± 3.2	-12.7 ± 6.2	94.5 ± 0.8	16 ± 6.3	127 ± 21.4	47.2 ± 0.4	51			20	-3.4 ± 2.1		
COc1ccc(CNc2nnc(N)s2)cc1OC [4j]	45.1	118 ± 3.9	26.2 ± 1.3	23.9 ± 4.8	5.7 ± 7.4	36.5 ± 4.4	18.6 ± 4.2	35.7 ± 7.1	129 ± 57.4	8.4 ± 1.2					-8.3 ± 4.5		
COc1cc(CNc2nnc(N)s2)cc(OC)c1OC [4k]	< 0	116 ± 3.8	20.2 ± 2.5	22.3 ± 4.1	0.2 ± 10.3	23.6 ± 2.4	11.4 ± 3.6	21.3 ± 27.9	71.2 ± 3.6	< 0					-1.9 ± 14.9		
Cc1ccc(CNc2nnc(N)s2)cc1 [4l]	10.8	104.6 ± 0.5	14.2 ± 3.9	17.3 ± 3.2	-6.7 ± 11.4	98.7 ± 1	26.9 ± 4.7	77.4 ± 1.5	106 ± 13.2	18.6 ± 0.8					-5.3 ± 14.7		
Nc1nnc(NCCc2ccccc2)s1 [4n]	4	112 ± 5.4	30.4 ± 2.9	22.7 ± 1.9	29.2 ± 6.6	103 ± 0.2	25.1 ± 4.3	91.4 ± 6.2	66.1 ± 3.1	36.7 ± 2	19					about 3 times	62
Nc1nnc(NCCCc2ccccc2)s1 [4q, N2G(3Gphenylpropyl)G1,3,4GthiadiazoleG2,5Gdiamine]	< 0	106 ± 3.7	18.6 ± 4.5	22.1 ± 2.7	17.3 ± 4.6	100.2 ± 0.4	24.2 ± 4.7	81.1 ± 11.6	111 ± 43.7	30 ± 1.9					5.6 ± 18		57
COCCCNc1nnc(N)s1 [4s, N2G(3Gmethoxypropyl)G1,3,4GthiadiazoleG2,5Gdiamine]	< 0	101 ± 11.2	-15.5 ± 7.2	-14.8 ± 3.7	-20 ± 13.9	-13.5 ± 10.7	-37.5 ± 15.3	3.9 ± 5.4	89.6 ± 8.9	11.8 ± 0.3					-0.9 ± 11.9		
